According to US20190307843A1, “SINGLE DOSE METHODS FOR PREVENTING AND TREATING FUNGAL INFECTIONS” (Cidara Therapeutics, Inc., priority 2016, published 2019):
Where two headings read alike, the source gives them in different places. Starred links: 1 amine or outer side, 2 acyl side, 3 side chain; linkers in the order of their positions; H or OH if unused. Positions of bridges follow the written chain, without caps; N, C: chain ends. Non-standard residues stand in square brackets, D forms with d. Residues, ends and D or L forms follow the SMILES beside them. *: point of attachment. Orn(4R-OH,5R-OCH2CH2NMe3+) = C[N+](C)(C)CCO[C@@H](N[*:3])[C@H](O)C[C@H](N[*:1])C(=O)[*:2]; pTerphenylCO(4''-OnC5H11) = CCCCCOc1ccc(-c2ccc(-c3ccc(C(=O)*)cc3)cc2)cc1; hTyr(3S-OH,4S-OH) = N[C@H](C(=O)O)[C@H](O)[C@@H](O)c1ccc(O)cc1; Pro(3S-OH,4S-Me) = C[C@H]1CN[C@H](C(=O)O)[C@H]1O; Hyp = O=C(O)[C@@H]1C[C@@H](O)CN1

Legend:
[1] = test system: Candida auris strains; experiment: Candida auris antifungal susceptibility testing (CLSI M27-A3), 38 strains; type: cell-based; details: for MIC: Candidozyma auris, read-out: MIC
[2] = test system: C. auris; experiment: Murine model of disseminated candidiasis, C. auris infection, kidney CFU and survival; type: in vivo, Candida auris; details: CD101 20 mg/kg IP
[3] = test system: C. albicans SC-5314 biofilms; experiment: Adhesion phase biofilms (prevention), XTT metabolic activity and CSLM; type: cell-based, Candida albicans
[4] = test system: C. albicans SC-5314 biofilms; experiment: Mature phase biofilms (treatment), XTT metabolic activity and CSLM; type: cell-based, Candida albicans
[5] = test system: C. albicans strain 529L; experiment: Rat model of vulvovaginal candidiasis, vaginal lavage and tissue burden; type: in vivo, Candida albicans; details: 5 mg/kg SC Dosed Once
[6] = CD101 0.25 and 1 μg/ml, 24 h, vs untreated
[7] = lavage Day 1 post infection, pre-treatment

## CCCCCOc1ccc(-c2ccc(-c3ccc(C(=O)N[C@H]4C[C@@H](O)[C@@H](OCC[N+](C)(C)C)NC(=O)[C@@H]5[C@@H](O)[C@@H](C)CN5C(=O)[C@H]([C@@H](C)O)NC(=O)[C@H]([C@H](O)[C@@H](O)c5ccc(O)cc5)NC(=O)[C@@H]5C[C@@H](O)CN5C(=O)[C@H]([C@@H](C)O)NC4=O)cc3)cc2)cc1 [CD101] ({pTerphenylCO(4''-OnC5H11)}-[Orn(4R-OH,5R-OCH2CH2NMe3+)]T[Hyp][hTyr(3S-OH,4S-OH)]T[Pro(3S-OH,4S-Me)]; lactam 1-C)
[1]; 24 h, strain 1 VPCI 669/P/12, 24 h
  MIC: 0.5 µg/mL
[1]; 24 h, strain 2 VCPI 671/P/12, 24 h
  MIC: 0.5 µg/mL
[1]; 24 h, strain 3 VCPI 674/P/12, 24 h
  MIC: 0.25 µg/mL
[1]; 24 h, strain 4 VCPI 683/P/12, 24 h
  MIC: 0.5 µg/mL
[1]; 24 h, strain 5 VCPI 692/P/12, 24 h
  MIC: 0.5 µg/mL
[1]; 24 h, strain 6 VCPI 712/P/12, 24 h
  MIC: 0.25 µg/mL
[1]; 24 h, strain 7 VCPI 471/P/13, 24 h
  MIC: 0.5 µg/mL
[1]; 24 h, strain 8 VCPI 475/P/13, 24 h
  MIC: 0.5 µg/mL
[1]; 24 h, strain 9 VCPI 478/P/13, 24 h
  MIC: 0.25 µg/mL
[1]; 24 h, strain 10 VCPI 479/P/13, 24 h
  MIC: 0.25 µg/mL
[1]; 24 h, strain 11 VCPI 480/P/13, 24 h
  MIC: 0.25 µg/mL
[1]; 24 h, strain 12 VCPI 482/P/13, 24 h
  MIC: 0.25 µg/mL
[1]; 24 h, strain 13 VCPI 483/P/13, 24 h
  MIC: 0.25 µg/mL
[1]; 24 h, strain 14 VCPI 1130/P/13, 24 h
  MIC: 0.5 µg/mL
[1]; 24 h, strain 15 VCPI 1132/P/13, 24 h
  MIC: 0.5 µg/mL
[1]; 24 h, strain 16 VCPI 1133/P/13, 24 h
  MIC: 16 µg/mL
[1]; 24 h, strain 17 VCPI 105/P/14, 24 h
  MIC: 0.25 µg/mL
[1]; 24 h, strain 18 VCPI 107/P/14, 24 h
  MIC: 0.125 µg/mL
[1]; 24 h, strain 19 VCPI 510/P/14, 24 h
  MIC: 0.25 µg/mL
[1]; 24 h, strain 20 VCPI 511/P/14, 24 h
  MIC: 0.25 µg/mL
[1]; 24 h, strain 21 VCPI 512/P/14, 24 h
  MIC: 0.25 µg/mL
[1]; 24 h, strain 22 VCPI 513/P/14, 24 h
  MIC: 0.5 µg/mL
[1]; 24 h, strain 23 VCPI 514/P/14, 24 h
  MIC: 0.5 µg/mL
[1]; 24 h, strain 24 VCPI 250/P/14, 24 h
  MIC: 0.25 µg/mL
[1]; 24 h, strain 25 VCPI 265/P/14, 24 h
  MIC: 16 µg/mL
[1]; 24 h, strain 26 VCPI 266/P/14, 24 h
  MIC: 0.5 µg/mL
[1]; 24 h, strain 27 VCPI 462/P/14, 24 h
  MIC: 16 µg/mL
[1]; 24 h, strain 28 VCPI 463/P/14, 24 h
  MIC: 0.125 µg/mL
[1]; 24 h, strain 29 VCPI 467/P/14, 24 h
  MIC: 0.25 µg/mL
[1]; 24 h, strain 30 VCPI 471a/P/14, 24 h
  MIC: 16 µg/mL
[1]; 24 h, strain 31 VCPI 478/P/14, 24 h
  MIC: 0.5 µg/mL
[1]; 24 h, strain 32 VCPI 518/P/14, 24 h
  MIC: 0.5 µg/mL
[1]; 24 h, strain 33 VCPI 550/P/14, 24 h
  MIC: 0.5 µg/mL
[1]; 24 h, strain 34 VCPI 714/P/14, 24 h
  MIC: 0.25 µg/mL
[1]; 24 h, strain 35 VCPI 717/P/14, 24 h
  MIC: 0.25 µg/mL
[1]; 24 h, strain 36 VCPI 1060/P/14, 24 h
  MIC: 0.25 µg/mL
[1]; 24 h, strain 37 VCPI 74/P/15, 24 h
  MIC: 0.25 µg/mL
[1]; 24 h, strain 38 VCPI 213/P/15, 24 h
  MIC: 0.25 µg/mL
[1]; 48 h, strain 1 VPCI 669/P/12, 48 h
  MIC: 0.5 µg/mL
[1]; 48 h, strain 2 VCPI 671/P/12, 48 h
  MIC: 0.5 µg/mL
[1]; 48 h, strain 3 VCPI 674/P/12, 48 h
  MIC: 0.25 µg/mL
[1]; 48 h, strain 4 VCPI 683/P/12, 48 h
  MIC: 0.5 µg/mL
[1]; 48 h, strain 5 VCPI 692/P/12, 48 h
  MIC: 0.5 µg/mL
[1]; 48 h, strain 6 VCPI 712/P/12, 48 h
  MIC: 0.25 µg/mL
[1]; 48 h, strain 7 VCPI 471/P/13, 48 h
  MIC: 0.5 µg/mL
[1]; 48 h, strain 8 VCPI 475/P/13, 48 h
  MIC: 0.5 µg/mL
[1]; 48 h, strain 9 VCPI 478/P/13, 48 h
  MIC: 0.25 µg/mL
[1]; 48 h, strain 10 VCPI 479/P/13, 48 h
  MIC: 0.25 µg/mL
[1]; 48 h, strain 11 VCPI 480/P/13, 48 h
  MIC: 0.25 µg/mL
[1]; 48 h, strain 12 VCPI 482/P/13, 48 h
  MIC: 0.25 µg/mL
[1]; 48 h, strain 13 VCPI 483/P/13, 48 h
  MIC: 0.25 µg/mL
[1]; 48 h, strain 14 VCPI 1130/P/13, 48 h
  MIC: 0.25 µg/mL
[1]; 48 h, strain 15 VCPI 1132/P/13, 48 h
  MIC: 0.25 µg/mL
[1]; 48 h, strain 16 VCPI 1133/P/13, 48 h
  MIC: > 16 µg/mL
[1]; 48 h, strain 17 VCPI 105/P/14, 48 h
  MIC: 0.25 µg/mL
[1]; 48 h, strain 18 VCPI 107/P/14, 48 h
  MIC: 0.125 µg/mL
[1]; 48 h, strain 19 VCPI 510/P/14, 48 h
  MIC: 0.25 µg/mL
[1]; 48 h, strain 20 VCPI 511/P/14, 48 h
  MIC: 0.25 µg/mL
[1]; 48 h, strain 21 VCPI 512/P/14, 48 h
  MIC: 0.25 µg/mL
[1]; 48 h, strain 22 VCPI 513/P/14, 48 h
  MIC: 0.5 µg/mL
[1]; 48 h, strain 23 VCPI 514/P/14, 48 h
  MIC: 0.5 µg/mL
[1]; 48 h, strain 24 VCPI 250/P/14, 48 h
  MIC: 0.25 µg/mL
[1]; 48 h, strain 25 VCPI 265/P/14, 48 h
  MIC: > 16 µg/mL
[1]; 48 h, strain 26 VCPI 266/P/14, 48 h
  MIC: 0.25 µg/mL
[1]; 48 h, strain 27 VCPI 462/P/14, 48 h
  MIC: > 16 µg/mL
[1]; 48 h, strain 28 VCPI 463/P/14, 48 h
  MIC: 0.125 µg/mL
[1]; 48 h, strain 29 VCPI 467/P/14, 48 h
  MIC: 0.25 µg/mL
[1]; 48 h, strain 30 VCPI 471a/P/14, 48 h
  MIC: > 16 µg/mL
[1]; 48 h, strain 31 VCPI 478/P/14, 48 h
  MIC: 1 µg/mL
[1]; 48 h, strain 32 VCPI 518/P/14, 48 h
  MIC: 0.5 µg/mL
[1]; 48 h, strain 33 VCPI 550/P/14, 48 h
  MIC: 1 µg/mL
[1]; 48 h, strain 34 VCPI 714/P/14, 48 h
  MIC: 0.25 µg/mL
[1]; 48 h, strain 35 VCPI 717/P/14, 48 h
  MIC: 0.25 µg/mL
[1]; 48 h, strain 36 VCPI 1060/P/14, 48 h
  MIC: 0.25 µg/mL
[1]; 48 h, strain 37 VCPI 74/P/15, 48 h
  MIC: 0.25 µg/mL
[1]; 48 h, strain 38 VCPI 213/P/15, 48 h
  MIC: 0.25 µg/mL
[1]; of 38 C. auris isolates
  number of resistant isolates: 4
[2]; 2 doses, Day 14
  percent survival at the end of the study: 80%
[2]; Day 1 and Day 4, Day 8
  average reduction in kidney CFU compared to fluconazole, amphotericin B, and vehicle treated groups: 3 log
[3]; [6]
  biofilm formation by metabolic activity (XTT): formed significantly less biofilms compared to untreated C. albicans
[3]; exposure to CD101, untreated control 36 μm
  thickness of biofilms: 4 μm
[4]; [6]
  metabolic activity (XTT) of mature biofilms: significantly less metabolic activity
[4]; CD101, untreated control 43 μm
  thickness of biofilms: 24 μm
[5]; [7]
  Group Geometric mean: 9.11 × 10^2 CFU/mL
  Log Group Geometric mean: 2.96 CFU/mL
  Log reduction from vehicle control: −0.52 CFU/mL
[5]; lavage Day 2 post infection
  Group Geometric mean: 3.34 × 10^2 CFU/mL
  Log Group Geometric mean: 2.52 CFU/mL
  Log reduction from vehicle control: 1.17 CFU/mL
[5]; lavage Day 3 post infection
  Group Geometric mean: 1.21 × 10^2 CFU/mL
  Log Group Geometric mean: 2.08 CFU/mL
